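Five compound concentrations were applied to cells in 96-well plates for 48 hours; endpoints were derived by simple linear interpolation of the resulting dose-response curve. TGI: concentration producing complete growth inhibition.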
Legend:
Test in all cases: inhibition of tumour cell growth, NCI panel, 48 h
A498 renal = tested on: A498 renal
A549 NSCLC = tested on: A549 NSCLC
ACHN renal = tested on: ACHN renal
HCT-15 colon = tested on: HCT-15 colon
HL-60(TB) leukemia = tested on: HL-60(TB) leukemia
LOX IMVI melanoma = tested on: LOX IMVI melanoma
M14 melanoma = tested on: M14 melanoma
MCF7 breast = tested on: MCF7 breast
MDA-MB-231 breast = tested on: MDA-MB-231 breast
NCI-H23 lung = tested on: NCI-H23 lung
NCI-H460 lung = tested on: NCI-H460 lung
OVCAR-3 ovarian = tested on: OVCAR-3 ovarian
OVCAR-5 ovarian = tested on: OVCAR-5 ovarian
OVCAR-8 ovarian = tested on: OVCAR-8 ovarian
RPMI-8226 leukemia = tested on: RPMI-8226 leukemia
SK-MEL-28 melanoma = tested on: SK-MEL-28 melanoma
SNB-75 CNS = tested on: SNB-75 CNS
UACC-62 melanoma = tested on: UACC-62 melanoma
K-562 leukemia = tested on: K-562 leukemia

| SMILES | TGI (A498 renal) [µM] | TGI (A549 NSCLC) [µM] | TGI (ACHN renal) [µM] | TGI (HCT-15 colon) [µM] | TGI (HL-60(TB) leukemia) [µM] | TGI (LOX IMVI melanoma) [µM] | TGI (M14 melanoma) [µM] | TGI (MCF7 breast) [µM] | TGI (MDA-MB-231 breast) [µM] | TGI (NCI-H23 lung) [µM] | TGI (NCI-H460 lung) [µM] | TGI (OVCAR-3 ovarian) [µM] | TGI (OVCAR-5 ovarian) [µM] | TGI (OVCAR-8 ovarian) [µM] | TGI (RPMI-8226 leukemia) [µM] | TGI (SK-MEL-28 melanoma) [µM] | TGI (SNB-75 CNS) [µM] | TGI (UACC-62 melanoma) [µM] | TGI (K-562 leukemia) [µM] |
| --- | --- | --- | --- | --- | --- | --- | --- | --- | --- | --- | --- | --- | --- | --- | --- | --- | --- | --- | --- |
| CC(=O)Oc1c2c(c(CC=C(C)C)c3c1C(=O)C1=C[C@@H]4CC5C(C)(C)OC(C/C=C(/C)C(=O)O)(C4=O)[C@@]15O3)OC(C)(CCC=C(C)C)C=C2 (stereo partly specified) | 1.82 | 0.999 | 0.279 | 0.978 | 10.6 | 0.247 | 0.814 | 1.4 | 0.779 | 1.01 | 1.97 | 0.922 | 1.16 | 0.747 | 0.538 | 0.378 | 1.39 | 0.86 |  |
| O=C(O)CCNC(=O)c1cc(N(CCBr)CCBr)c([N+](=O)[O-])cc1[N+](=O)[O-] | > 100 | > 100 | > 100 | > 100 | > 100 | > 100 | > 100 | > 100 | > 100 | > 100 | > 100 | > 100 | > 100 | > 100 | > 100 | > 100 | > 100 |  | > 100 |
| O=C(Nc1nc(C23CC4CC(CC(C4)C2)C3)cs1)c1cc2cc(Cl)ccc2oc1=O | > 100 | > 100 | > 100 | > 100 | > 100 | > 100 |  | > 100 | > 100 | > 100 | > 100 | > 100 | > 100 | > 100 | > 100 | > 100 | > 100 |  | > 100 |
| CC(=O)OC12c3ccccc3-c3ccccc3C1C(C(=O)O)C2(Cl)C(=O)O (stereo unspecified) | > 10 |  | > 10 | > 10 | > 10 | > 10 | > 10 | > 10 | > 10 | > 10 | > 10 | > 10 | > 10 | > 10 | > 10 | > 10 | > 10 |  | > 10 |
| S=C(N/N=C/c1ccccn1)Nc1ccc(Cl)cc1 | 59.9 | > 65.4 | 1.66 | > 100 | 0.0796 | > 35.3 |  | > 100 | > 100 | > 100 | > 100 | > 100 | > 100 | > 42.8 | > 26.4 | > 100 | 8.74 | 1.51 |  |
| CCOC(=O)C1C(c2ccc(O)c(OC)c2)c2c([nH][nH]c2=O)CC1(C)O (stereo unspecified) | > 100 | > 100 | > 100 | > 100 | > 100 | > 100 | > 100 | > 100 | > 100 | > 100 |  | > 100 | > 100 | > 100 | > 100 | > 100 | > 100 | > 100 |  |
| CC1(C)OCC(C2OC(OC(=O)c3ccc([N+](=O)[O-])cc3)C3OC(C)(C)OC23)O1 (stereo unspecified) | > 100 | > 100 | > 100 | > 100 |  | > 100 | > 100 | > 100 | > 100 | > 100 | > 100 | > 100 | > 100 | > 100 | > 100 | > 100 | 54.3 | > 100 | > 100 |
| COC(=O)c1c2c(cc3c1CC1(C3)Cc3cc4c(c(C(C)=O)c3C1)CCC4)C=CC2 (stereo unspecified) | > 31.6 | > 31.6 | > 31.6 | > 31.6 | > 31.6 |  | > 31.6 | > 31.6 | > 31.6 | > 31.6 | > 31.6 | > 31.6 | > 31.6 | > 31.6 | > 31.6 | > 31.6 | 31.2 | > 31.6 | > 31.6 |
| O=C1C(Cl)C2(CC(/C=C/c3ccccc3O)=NN2c2cccc(S(=O)(=O)O)c2)N1c1nc2ccccc2s1 (stereo unspecified) | 50.5 | 82.5 | 53 | 44.6 | 14.5 | 24.7 | 37.8 | 31.8 | 74.6 | 33.2 | 34.6 |  | 45.8 | 63.9 | 35.5 | 71.2 | > 100 | 30.9 | 86.1 |
| CCN1C(=O)/C(=C2\SC(c3ccccc3)(c3ccccc3)c3ccccc32)SC1=S | > 100 | > 100 | > 100 | > 100 |  | > 100 | > 100 | > 100 | > 100 | > 100 | > 100 | > 100 | > 100 | > 100 | > 100 | > 100 | > 100 | > 100 | > 100 |
| O=[N+]1ON=C(c2ccccc2)C1=C1C(c2c(-c3ccccc3)no[n+]2[O-])=NON1[O-] | 43.7 | > 100 | 27.4 |  | 7.52 | 8.67 | > 100 | 7.51 | 95.9 | 20.7 | 68.7 | 30.6 | > 100 | > 100 | > 100 | > 100 | 33.2 | 51.2 | 10.6 |
| O=C1CCCC(=O)N1n1c(Cc2ccccc2)n[nH]c1=O | > 100 | > 100 | > 100 | > 100 | > 100 | > 100 | > 100 | > 100 | > 100 | > 100 |  | > 100 | > 100 | > 100 | > 100 | > 100 | > 100 | > 100 | > 100 |
| O=c1c2ccccc2nc2n1C(c1ccc([N+](=O)[O-])cc1)C2(c1ccccc1)c1ccccc1 (stereo unspecified) | > 100 | > 100 | > 100 | > 100 | > 100 | > 100 | > 100 | > 100 | > 100 | > 100 | > 100 | > 100 | > 100 | > 100 | > 100 | > 100 |  | > 100 |  |
| COC(=O)c1ccc(NCc2c(O)ccc(O)c2Br)cc1Cl | > 100 | > 100 | 30.6 | 35.9 | 4.52 | 27.3 | 33.3 | 32.2 | 29.4 | 32.9 | 41.9 | 20.9 | 28.6 | 30 | > 100 | 30.7 | 70.2 | 30.3 |  |
| O=C(CC(C(=O)c1cccs1)c1cccs1)c1ccccc1Cl (stereo unspecified) | > 100 | > 100 | > 100 | > 100 | > 100 | > 100 | > 100 | > 100 | > 100 | > 100 | > 100 |  | > 100 | > 100 | > 100 | > 100 | > 100 | > 100 | > 100 |
| COc1ccc(P2(=S)SP(=S)(c3ccc(Cl)cc3)S2)cc1 (stereo unspecified) | > 100 | > 100 | > 100 | > 100 | > 100 | > 100 | > 100 | > 100 | > 100 | > 100 | > 100 | > 100 | > 100 | > 100 | > 100 | > 100 | > 100 | > 100 |  |
| COc1cccc2c3ccccc3c3nc[nH]c3c12 | > 90.5 | > 100 | > 100 | 97.1 |  | > 100 | > 100 | > 100 | > 79.2 | > 100 | > 69.2 | > 100 | > 100 | > 100 | 44.5 | > 77.2 | > 100 | > 100 | 28.4 |
| CC(=O)Nc1ccc(-c2nc3ccccc3s2)cc1C | 21.6 |  | > 100 | > 100 | > 100 | > 100 | > 100 | > 100 | > 100 | > 100 | > 100 |  |  | > 100 | > 100 | > 100 | > 100 | > 100 |  |
| COC(=O)C(Cc1ccccc1)NP(=O)(O)OCC1OC(n2cc(I)c(=O)[nH]c2=O)CC1O (stereo unspecified) | > 100 | > 100 | > 100 | > 100 | > 100 | > 100 | > 100 | > 100 | > 100 | > 100 | > 100 | > 100 |  | > 100 | > 100 | > 100 | > 100 | > 100 | > 100 |
| CCOC(=O)C1=c2[nH]c3cccc4cccc(c43)n2C(=O)CC1c1ccccc1 (stereo unspecified) | > 100 | > 100 | > 100 | > 100 | > 100 | > 100 | > 100 | > 100 | > 100 | > 100 | > 100 |  | > 100 | > 100 | > 100 | > 100 | > 100 | > 100 | > 100 |
| Nn1c(CCCCCCCCc2nnc(COc3ccccc3)n2N)nnc1COc1ccccc1 | > 100 | > 100 | > 100 | > 100 | > 100 | > 100 | > 100 | > 100 | > 100 | > 100 | > 100 |  | > 100 | > 100 | > 100 | > 100 | > 100 | > 100 | > 100 |
| Cc1c(/C=N/NC(=S)Nc2ccccc2)c(=O)n(-c2ccccc2)n1C | > 100 |  | > 100 | > 100 | > 100 | > 100 | > 100 | > 100 | > 100 | > 100 | > 100 |  |  | > 100 | > 100 | > 100 | > 100 | > 100 | > 100 |
| Cc1ccc(C2SCC(=O)N2c2ccc(-c3ccc(-n4c(-c5ccccc5)nc5ccccc5c4=O)cc3)cc2)cc1 (stereo unspecified) | > 100 | > 100 | > 100 | > 100 | > 100 | > 100 | > 100 | > 100 | > 100 | > 100 | > 100 | > 100 | > 100 | > 100 | > 100 | > 100 |  | > 100 | > 100 |
| COC1(OC)N=C(N)C2(C#N)C3(C(=O)N(C(C)C)N=C3C)C12C#N (stereo unspecified) | > 100 | > 100 | > 100 | > 100 | > 100 |  | > 100 | > 100 | > 100 | > 100 | > 100 | > 100 | > 100 | > 100 | > 100 | > 100 | > 100 | > 100 | > 100 |
| CC(C)OP(=O)(OC(C)C)c1ccc2c(c1)OCCOCCOCCOCCO2 | > 100 | > 100 | > 100 | > 100 | > 100 | > 100 | > 100 | > 100 | > 100 | > 100 | > 100 |  |  | > 100 | > 100 | > 100 | > 100 | > 100 | > 100 |
| COc1cc(/C=C/c2nc(N)nnc2C)cc(OC)c1OC | > 71.6 | > 79.4 | > 56.1 | 38.9 | 8.36 | > 35.9 | > 56.4 | > 100 | > 100 | > 68.1 | > 58.5 |  | > 58.9 | > 100 | 52.5 | > 100 |  | > 50.3 | 71.2 |

From PubChem BioAssay (NCI)
